Measured values: patent US8664275B2, “Crystalline form of Bimatoprost, preparation method and use thereof” (Shanghai Techwell Biopharmaceutical Co., Ltd., priority 2009, dated 2014)

Assay: Comparison of stability: sealed storage at 40° C., HPLC purity
Type: physicochemical
Conditions: for degradation in stability test: sealed storage for 4 days at 40° C.
Excerpt: The crystalline form A of Bimatoprost of the invention has specific stability, which is favorable for storage. The inventors compare the stability of the crystalline form A prepared by the method of the invention with that of the crystalline form B prepared in the prior art by stability test. […] Degradation products of the crystalline form B include a compound II and a compound III. […] As used herein, the term “HPLC purity” refers to the percentage of peak area of the compound as shown in formula I that is subject to HPLC detection and then area normalization according to the obtained chromatogram in the total peak area. The HPLC detection method is as follows: Chromatographic column: 4.6×150 mm 3 μm C18 column; column temperature: 35° C.; mobile phase: A: acetonitrile: water (20 mM potassium phosphate buffer solution; pH=2.8) 20:80; B: acetonitrile: water (20 mM potassium phosphate buffer solution; pH=2.8) 40:60; gradient elution conditions: A:B=100: 0, 1 min; A:B=100:0-40:60, 16 min; A:B=40:60, 4 min; A:B=40:60-100:0, 1 min. Flow rate: 1 ml/min; main peak retention time: around […]; sample volume 15 μl; column temperature: 35° C.±5° C.; detection wavelength: 210 nm; running time: 40 min. A sample of the crystal A of Bimatoprost prepared by Example 4 was taken (0.8 g; HPLC purity: 99.7%) and divided into 4 parts of equal amount; and the 4 parts were respectively hermetically placed under 40° C. for 1 day, 2 days, 3 days and 4 days and then sampled for analysis, wherein HPLC purity was 99.7%, 99.7%, 99.7% and 99.7% respectively. A sample of the crystal B of Bimatoprost prepared by Example 2 was taken (0.8 g; HPLC purity: 99.6%) and divided into 4 parts of equal amount; and the 4 parts were respectively hermetically placed under 40° C. for 1 day, 2 days, 3 days and 4 days and then sampled for analysis, wherein HPLC purity was 99.4%, 99.2%, 99.1% and 98.7% respectively.

HPLC purity (hermetically placed under 40° C. for 1 day, listed as crystal A of Bimatoprost) | HPLC purity (hermetically placed under 40° C. for 2 days, listed as crystal A of Bimatoprost) | HPLC purity (hermetically placed under 40° C. for 3 days, listed as crystal A of Bimatoprost) | HPLC purity (hermetically placed under 40° C. for 4 days, listed as crystal A of Bimatoprost) | HPLC purity (sample before storage (initial), listed as crystal A of Bimatoprost) | degradation in stability test | HPLC purity (hermetically placed under 40° C. for 1 day, listed as crystal B of Bimatoprost) | HPLC purity (hermetically placed under 40° C. for 2 days, listed as crystal B of Bimatoprost) | HPLC purity (hermetically placed under 40° C. for 3 days, listed as crystal B of Bimatoprost) | HPLC purity (hermetically placed under 40° C. for 4 days, listed as crystal B of Bimatoprost) | HPLC purity (sample before storage (initial), listed as crystal B of Bimatoprost) | SMILES
99.7% | 99.7% | 99.7% | 99.7% | 99.7% | does not degrade | – | – | – | – | – | CCNC(=O)CCC/C=C\C[C@@H]1[C@@H](/C=C/[C@@H](O)CCc2ccccc2)[C@H](O)C[C@@H]1O [crystalline form A, (Z)-7-[(1R,2R,3R,5S)-3,5-dihydroxyl-2-[(E,3S)-3-hydroxyl-5-phenylpent-1-enyl]cyclopentyl]-N-ethylhept-5-eneamide]
– | – | – | – | – | obviously degrades | 99.4% | 99.2% | 99.1% | 98.7% | 99.6% | CCNC(=O)CCC/C=C\C[C@@H]1[C@@H](/C=C/[C@@H](O)CCc2ccccc2)[C@H](O)C[C@@H]1O [crystalline form B, (Z)-7-[(1R,2R,3R,5S)-3,5-dihydroxyl-2-[(E,3S)-3-hydroxyl-5-phenylpent-1-enyl]cyclopentyl]-N-ethylhept-5-eneamide]
